Test results reported in ChEMBL document CHEMBL1201862, “PubChem BioAssay data set” (2004).
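Test compounds were applied to cells in 96-well plates for 48 hours at 5 doses. Here, GI50 denotes the concentration required for 50% inhibition of growth.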 The source made the active and inactive calls. Rule as the data show it: active = GI50 up to about 1.1 µM and inactive = higher.

Experiments:
Assay in all cases: growth of human tumour cells (NCI), 48 h
MDA-MB-231 = tested on: MDA-MB-231
IGROV-1 = tested on: IGROV-1
786-0 = tested on: 786-0
T47D = tested on: T47D
NCI-H23 = tested on: NCI-H23
MCF7 = tested on: MCF7
SR = tested on: SR
SF-295 = tested on: SF-295
DU-145 = tested on: DU-145
SK-MEL-5 = tested on: SK-MEL-5
HT-29 = tested on: HT-29
NCI-H226 = tested on: NCI-H226
MDA-N = tested on: MDA-N
HCT-116 = tested on: HCT-116
CAKI-1 = tested on: CAKI-1
PC-3 = tested on: PC-3
A549 = tested on: A549
HCT-15 = tested on: HCT-15
CCRF-CEM = tested on: CCRF-CEM
SN12C = tested on: SN12C
NCI/ADR-RES = tested on: NCI/ADR-RES
MOLT-4 = tested on: MOLT-4
UACC-257 = tested on: UACC-257
Malme-3M = tested on: Malme-3M
SF-539 = tested on: SF-539
NCI-H460 = tested on: NCI-H460
EKVX = tested on: EKVX
M14 = tested on: M14
OVCAR-8 = tested on: OVCAR-8
OVCAR-3 = tested on: OVCAR-3
OVCAR-5 = tested on: OVCAR-5
Hs-578T = tested on: Hs-578T
TK-10 = tested on: TK-10
HOP-62 = tested on: HOP-62
NCI-H522 = tested on: NCI-H522
U-251 = tested on: U-251
COLO 205 = tested on: COLO 205
OVCAR-4 = tested on: OVCAR-4
HCC 2998 = tested on: HCC 2998
SK-MEL-2 = tested on: SK-MEL-2
SK-OV-3 = tested on: SK-OV-3
UACC-62 = tested on: UACC-62
SF-268 = tested on: SF-268
A498 = tested on: A498
MDA-MB-435 = tested on: MDA-MB-435
SNB-75 = tested on: SNB-75
K562 = tested on: K562
RXF 393 = tested on: RXF 393
LOX IMVI = tested on: LOX IMVI
KM12 = tested on: KM12
UO-31 = tested on: UO-31
SW-620 = tested on: SW-620
HOP-92 = tested on: HOP-92
HL-60 = tested on: HL-60
SK-MEL-28 = tested on: SK-MEL-28
SNB-19 = tested on: SNB-19
ACHN = tested on: ACHN
RPMI-8226 = tested on: RPMI-8226

With `Cc1cc2nn(C3CCCO3)nc2cc1C` (centres undefined) the GI50 (MDA-MB-231) was > 100 µM (inactive), the GI50 (IGROV-1) was > 100 µM (inactive) and the GI50 (786-0) was > 100 µM (inactive). The GI50 (T47D) was > 100 µM (inactive), the GI50 (NCI-H23) was > 100 µM (inactive) and the GI50 (MCF7) was > 100 µM (inactive). The GI50 (SR) was > 100 µM (inactive), the GI50 (SF-295) was > 100 µM (inactive) and the GI50 (DU-145) was > 100 µM (inactive). For the same molecule, the GI50 (SK-MEL-5) was > 100 µM (inactive), the GI50 (HT-29) was > 100 µM (inactive) and the GI50 (NCI-H226) was > 100 µM (inactive). The GI50 (MDA-N) was > 100 µM (inactive), the GI50 (HCT-116) was > 100 µM (inactive) and the GI50 (CAKI-1) was > 100 µM (inactive). The GI50 (PC-3) was > 100 µM (inactive), the GI50 (A549) was > 100 µM (inactive) and the GI50 (HCT-15) was greater than 100 µM. For the same molecule, the GI50 (CCRF-CEM) was > 100 µM (inactive), the GI50 (SN12C) was > 100 µM (inactive) and the GI50 (NCI/ADR-RES) was > 100 µM (inactive). The GI50 (MOLT-4) was > 100 µM (inactive), the GI50 (UACC-257) was > 100 µM (inactive) and the GI50 (Malme-3M) was > 100 µM (inactive). The GI50 (SF-539) was > 100 µM (inactive), the GI50 (NCI-H460) was > 100 µM (inactive) and the GI50 (EKVX) was > 100 µM (inactive). The GI50 (M14) was > 100 µM (inactive), the GI50 (OVCAR-8) was > 100 µM (inactive) and the GI50 (OVCAR-3) was > 100 µM (inactive). The GI50 (OVCAR-5) was > 100 µM (inactive), the GI50 (Hs-578T) was > 100 µM (inactive) and the GI50 (TK-10) was > 100 µM (inactive). For the same molecule, the GI50 (HOP-62) was > 100 µM (inactive), the GI50 (NCI-H522) was > 100 µM (inactive) and the GI50 (U-251) was > 100 µM (inactive). For the same molecule, the GI50 (COLO 205) was > 100 µM (inactive), the GI50 (OVCAR-4) was > 100 µM (inactive) and the GI50 (HCC 2998) was > 100 µM (inactive). The GI50 (SK-MEL-2) was > 100 µM (inactive), the GI50 (SK-OV-3) was > 100 µM (inactive) and the GI50 (UACC-62) was > 100 µM (inactive). For the same molecule, the GI50 (SF-268) was > 100 µM (inactive), the GI50 (A498) was > 100 µM (inactive) and the GI50 (MDA-MB-435) was > 100 µM (inactive). The GI50 (SNB-75) was 69.3 µM (inactive), the GI50 (K562) was > 100 µM (inactive) and the GI50 (RXF 393) was > 100 µM (inactive).
For `CCOC(=O)/C(C(=S)NC)=C(/N)N1CCCC1`, the GI50 (MDA-MB-231) was > 100 µM (inactive), the GI50 (LOX IMVI) was > 100 µM (inactive) and the GI50 (IGROV-1) was > 100 µM (inactive). For the same molecule, the GI50 (786-0) was > 100 µM (inactive), the GI50 (KM12) was > 100 µM (inactive) and the GI50 (UO-31) was 71.6 µM (inactive). For the same molecule, the GI50 (T47D) was > 100 µM (inactive), the GI50 (NCI-H23) was > 100 µM (inactive) and the GI50 (SR) was > 100 µM (inactive). The GI50 (SF-295) was > 100 µM (inactive), the GI50 (DU-145) was > 100 µM (inactive) and the GI50 (SK-MEL-5) was > 100 µM (inactive). For the same molecule, the GI50 (SW-620) was > 100 µM (inactive), the GI50 (HT-29) was > 100 µM (inactive) and the GI50 (NCI-H226) was > 100 µM (inactive). The GI50 (HOP-92) was > 100 µM (inactive), the GI50 (MDA-N) was > 100 µM (inactive) and the GI50 (HCT-116) was > 100 µM (inactive). The GI50 (CAKI-1) was 77.1 µM (inactive), the GI50 (PC-3) was > 100 µM (inactive) and the GI50 (HL-60) was > 100 µM (inactive). The GI50 (A549) was > 100 µM (inactive), the GI50 (HCT-15) was greater than 100 µM and the GI50 (CCRF-CEM) was > 100 µM (inactive). The GI50 (SN12C) was > 100 µM (inactive), the GI50 (NCI/ADR-RES) was > 100 µM (inactive) and the GI50 (MOLT-4) was > 100 µM (inactive). For the same molecule, the GI50 (UACC-257) was > 100 µM (inactive), the GI50 (Malme-3M) was > 100 µM (inactive) and the GI50 (SF-539) was > 100 µM (inactive). The GI50 (NCI-H460) was > 100 µM (inactive), the GI50 (EKVX) was > 100 µM (inactive) and the GI50 (SK-MEL-28) was > 100 µM (inactive). The GI50 (M14) was > 100 µM (inactive), the GI50 (OVCAR-8) was > 100 µM (inactive) and the GI50 (OVCAR-3) was > 100 µM (inactive). The GI50 (OVCAR-5) was > 100 µM (inactive), the GI50 (Hs-578T) was > 100 µM (inactive) and the GI50 (SNB-19) was > 100 µM (inactive). The GI50 (TK-10) was > 100 µM (inactive), the GI50 (ACHN) was > 100 µM (inactive) and the GI50 (HOP-62) was > 100 µM (inactive). For the same molecule, the GI50 (NCI-H522) was > 100 µM (inactive), the GI50 (U-251) was > 100 µM (inactive) and the GI50 (COLO 205) was > 100 µM (inactive). The GI50 (OVCAR-4) was > 100 µM (inactive), the GI50 (HCC 2998) was > 100 µM (inactive) and the GI50 (SK-MEL-2) was > 100 µM (inactive). For the same molecule, the GI50 (SK-OV-3) was > 100 µM (inactive), the GI50 (RPMI-8226) was > 100 µM (inactive) and the GI50 (UACC-62) was > 100 µM (inactive). For the same molecule, the GI50 (SF-268) was > 100 µM (inactive), the GI50 (A498) was > 100 µM (inactive) and the GI50 (MDA-MB-435) was > 100 µM (inactive). For the same molecule, the GI50 (K562) was > 100 µM (inactive) and the GI50 (RXF 393) was > 100 µM (inactive).
